In one data set the test system is endothelial barrier. The data set is described as follows: Endothelial barrier integrity, Evans blue injected into circulation loop. In kind it is in vitro ADME, human. The following applies: tripartite and bipartite vessels. An excerpt:
The integrity of the endothelial barrier in tripartite vessels was functionally assessed by injecting Evans blue into the circulation loop and compared to bipartite vessels. As expected, Evans blue was excluded in both tripartite and bipartite vessels (FIG. 1A).

In data set [1] the test system is native apoE secreted by astrocytes. The data set is described as follows: Astrocyte apoE secretion in tripartite vessels (ELISA). In kind it is cell-based, human. The following applies: GW3965 circulated through lumen 72 h. The procedure: All experiments were conducted under an approved clinical protocol (UBC Clinical Ethics Research Board H14-03357). Upon receipt of written informed consent, 100 ml of fasted blood was collected from normolipidemic healthy donors into vacutainer tubes containing EDTA. Plasma HDL (1.063-1.21 g/ml) was isolated by sequential potassium bromide gradient ultracentrifugation. The purity of the HDL preparations were verified by sodium dodecyl sulfate polyacrylamide gel electrophoresis (SDS-PAGE) followed by Coomassie blue staining to ensure no low-density lipoprotein (LDL) or albumin contamination. Total protein concentration was assessed using the bicinchoninic acid (BCA) assay (Thermofisher Scientific). Recombinant ApoE2 and ApoE4 were commercially purchased and solubilized following the manufacturer's instructions (ABCAM, apoE2 ab55210 and apoE4 ab50243). Secretion of endogenous ApoE from human astrocytes in tripartite vessels was induced by injecting 0.8 μM GW3965 in the circulation medium 72 h prior to addition of Aβ. ApoE concentrations were measured using enzyme linked immunosorbent assay (ELISA) as previously described (Fan et al. 2016 PLoS One. September 6; 11(9):e0162384). […] Fluorescence was read after 15 min at RT on an EnSpire 2300 Multilabel Plate Reader (325Ex/420Em). […]
(ELISA stands for enzyme-linked immunosorbent assay.)

Another data set deals with glutamate release. In words: Neuronal functionality: glutamate release from quadripartite tissue (HPLC). Type of data set: cell-based, human. Particulars: 50 nM KCl for 30 min. As for the experimental part: After 21 days in culture, quadripartite tissue were harvested in Hanks buffered salt solution (HBSS) and cut in half. One half is incubated in HBSS without potassium chloride (KCl) and one half in HBSS with […] KCl. After 30 minutes buffer was collected and run through a GABA/glutamate affinity column on a high pressure liquid chromatography (HPLC) previously calibrated with glutamate standard (0 to 2.5 uM).
The functionality of the neurons was further evaluated by measuring glutamate release in the absence and presence of […] of KCL for 30 min. Glutamate release was then measured by HPLC (FIG. 9A). […] Finally, the secretion of endogenous neuronally-produced Aβ40 and Aβ42 in quadripartite tissue (FIG. 9B) and in circulatory medium (FIG. 9C) as measured by commercial ELISA as above.

The next data set relates to NO synthase. In words: NO production by EC in tripartite vessels (conversion of L-3H-arginine to L-3H-citruline). Type of data set: cell-based, human. The following applies: 1 mM L-NAME with Ach or HDL stimulation. As for the experimental part:
Nitric oxide (NO) synthesis was measured using a commercial nitric oxide synthesis (NOS) activity assay kit (Caymenchemical). Briefly, a 2-3 mm ring of vascular tissue was mechanically ground in 150 μl of ice-cold homogenized buffer (25 mM Tris-Cl, pH7.4, 1 mM EDTA and 1 mM EGTA) and centrifuged 15 min at 4° C. at 10,000 g. The supernatant was aliquoted and incubated in reaction buffer containing 25 mM Tris-Cl, pH7.4, 0.25 mM EDTA, 0.6 mM CaCl2, 1 mM NADP, 200 nM calmodulin, 3 μM tetrahydrobiopterin, 1 μM flavin adenine dinucleotide, 1 μM flavin adenine monoucleotide and 0.2 μCi L-^3H-arginine; PerkinElmer) in the presence of 10 nM acetylcholine (Ach), 0.2 mg/ml HDL or 1 mM L-NG-nitroarginine methyl ester (L-NAME). After 60 min at 37° C., the reaction was stopped by adding 400 μl of stop buffer ([…] HEPES, 5 mM EDTA, pH 5.5). […] Scintillation mix (Ultimate Gold, PerkinElmer) was added to the supernatant and counted using LS6500 β-counter (Beckman Coulter). The percent citrulline formed was calculated as follows: % conversion=(cpm reaction-cpm background)/cpm total*100.
The functionality of EC and astrocytes within tripartite bioengineered vessels was evaluated by measuring nitric oxide (NO) produced by EC and native apoE secreted by astrocytes, which were genotyped as apoE3/apoE3. […]

Data set [2] deals with Aβ42. In words: Aβ42 transport into luminal circulating medium, bipartite vessels (ELISA). In kind it is cell-based, human. Particulars: 1 μM Aβ42, over 4 h, apoE ratio 25:1 antelumen, HDL 200 μg/ml circulating. As for the experimental part:
(§1) Recombinant Aβ40 and Aβ42 peptides (California Peptide) were dissolved in hexafluoroisopropanol (HFIP). The HFIP was removed by evaporation overnight and stocks were stored at −20° C. On the day of the assay, soluble monomers were prepared by reconstituting the peptide film in dimethylsulfoxide (DMSO) to 5 mM, diluted further to […] in Roswell Park Memorial Institute (RPMI) medium without FBS. 100 μl of Aβ solution was injected in the tissue chamber containing 900 μl of DMEM (Gibco) without FBS to the desired concentration using a syringe under flow conditions. For luminal recovery, 100 μl circulating medium was collected at the indicated time.
(§2) Luminal medium was collected from the circulation chamber and 5 mm tissue rings were crushed and lysed in radioimmunoprecipitation assay (RIPA) buffer (10 mM Tris pH 7.4, 150 mM NaCl, 1.0% NP-40, 1.0% sodium deoxycholate, 0.1% SDS and cOmplete protease inhibitor with EDTA (Roche)). Aβ40 (KHB3442, Life Tech) and Aβ42 (KHB3482, Life Tech) were quantified using commercial ELISAs and normalized to total protein concentration, measured by BCA.
(§3) Bipartite vessels were prepared as described above. […]

The subject of data set [3] is Aβ42. In words: Aβ42 accumulation in vascular tissue, bipartite vessels (ELISA). Particulars: 1 μM Aβ42, 24 h, apoE ratio 25:1, HDL 200 μg/ml. In kind it is cell-based, human. As for the experimental part:
as §1, §2, §3

Data set [4] deals with Aβ40. In words: Aβ40 accumulation in vascular tissue, bipartite vessels (ELISA). Type of data set: cell-based, human. The following applies: 1 μM Aβ40, 24 h, apoE ratio 25:1, HDL 200 μg/ml. The procedure:
as §1, §2
(§4) Genetic variation in APOE represents a common genetic risk for AD, with apoE4 considered detrimental and apoE2 protective (Zlokovic, 2013 JAMA Neurol 70(4):440-444). […]

Data set [5] concerns Aβ40. The data set is described as follows: Aβ40 transport into luminal circulating medium, bipartite vessels (ELISA). Type of data set: cell-based, human. The following applies: 1 μM Aβ40, over 4 h, apoE ratio 25:1 antelumen, HDL 200 μg/ml circulating. The procedure: as §1, §2, §4
Data set [6] relates to Aβ42. The data set is described as follows: Aβ42 transport into luminal circulating medium, tripartite vessels (ELISA). The following applies: 1 μM Aβ42, over 4 h, GW3965 0.8 μM 72 h (astrocyte apoE), HDL 200 μg/ml. Type of data set: cell-based, human. As for the experimental part:
as §1
(§5) All experiments were conducted under an approved clinical protocol (UBC Clinical Ethics Research Board H14-03357). Upon receipt of written informed consent, 100 ml of fasted blood was collected from normolipidemic healthy donors into vacutainer tubes containing EDTA. Plasma HDL (1.063-1.21 g/ml) was isolated by sequential potassium bromide gradient ultracentrifugation. […] Total protein concentration was assessed using the bicinchoninic acid (BCA) assay (Thermofisher Scientific). […] ApoE concentrations were measured using enzyme linked immunosorbent assay (ELISA) as previously described (Fan et al. 2016 PLoS One. September 6; 11(9):e0162384). […] Fluorescence was read after 15 min at RT on an EnSpire 2300 Multilabel Plate Reader (325Ex/420Em). […]

In data set [7] the test system is Aβ40. The data set is described as follows: Aβ40 accumulation in vascular tissue, tripartite vessels (ELISA). Particulars: after 24 h, relative to baseline tripartite conditions. In kind it is cell-based, human. The procedure:
as §1, §5

For data set [8], the system named is Aβ40. In words: Aβ40 transport into luminal circulating medium, tripartite vessels (ELISA). Type of data set: cell-based, human. Particulars: 1 μM Aβ40, over 4 h, GW3965 0.8 μM 72 h (astrocyte apoE), HDL 200 μg/ml. The procedure:
as §1, §5

The test system of data set [9] is Aβ42. The data set is described as follows: Aβ42 accumulation in vascular tissue, tripartite vessels (ELISA). Type of data set: cell-based, human. The following applies: after 24 h, relative to baseline tripartite conditions. As for the experimental part: as §1, §5

Entries after “also recorded” stand apart in the source; their conditions may differ.

Take `Cc1cc(-c2ccc(/N=N/c3ccc4c(S(=O)(=O)O)cc(S(=O)(=O)O)c(N)c4c3O)c(C)c2)ccc1/N=N/c1ccc2c(S(=O)(=O)O)cc(S(=O)(=O)O)c(N)c2c1O` [Evans blue]: the “Evans blue exclusion (integrity of the endothelial barrier)” value with endothelial barrier was “excluded”.

For `O=C(O)Cc1cccc(OCCCN(Cc2cccc(C(F)(F)F)c2Cl)CC(c2ccccc2)c2ccccc2)c1` [GW3965], the “secretion of native apoE” value in data set [1] was “significantly stimulated”.

On to `[Cl-].[K+]` [KCl, potassium chloride], for which, in the data set with glutamate release, the glutamate release result is on record as “increased glutamate release”.

`COC(=O)[C@@H](N)CCCNC(=N)N[N+](=O)[O-]` [L-NAME, L-NG-nitroarginine methyl ester]: the “conversion of L-3H-arginine to L-3H-citruline in the presence of L-NAME” value in the data set on NO synthase is “the conversion was blocked”.

Regarding “apoE2: Recombinant ApoE2, commercially purchased (ABCAM ab55210)”, the “Aβ42 transport (recovery into circulation medium)” value with Aβ42 [2] is “did not alter”. Further, the “Aβ42 accumulated in tissue” value in the data set on Aβ42 [3] is on record as “selectively decreased; also recorded: significantly reduced”. Also, the “Aβ40 accumulated in tissue” value in the data set on Aβ40 [4] is “not significantly affected”. The “Aβ40 transport (recovery into circulation medium)” value in the data set on Aβ40 [5] was “did not alter”.

On to “apoE4: Recombinant ApoE4, commercially purchased (ABCAM ab50243)”, for which, in the data set with Aβ42 [3], the “Aβ42 accumulated in tissue” value is “selectively elevated”.

With “apoE: Native apoE3 secreted from astrocytes in tripartite vessels, stimulated with GW3965 (0.8 μM) for 72 h”, the “rate of Aβ42 transport” value in the data set on Aβ42 [6] is “neither apoE alone nor HDL alone modified the rate”. For the same molecule, the “accumulation of Aβ40 within tissue” value in the data set on Aβ40 [7] is “neither apoE, HDL, nor both apoE and HDL affected accumulation”. The “rate of Aβ40 transport” value in the data set on Aβ40 [8] is on record as “neither apoE alone nor HDL alone modified the rate”. Also, in the data set with Aβ42 [9], the “accumulation of Aβ42 within tissue” value was “neither apoE, HDL, nor both apoE and HDL affected accumulation”.
